From ChEMBL document CHEMBL2021758, “Synthesis of indolizidinone analogues of cytotoxic alkaloids: monocyclic precursors are also active” (2012) come the findings set out here.

Assay [1] concerns SH-SY5Y. The experiment in a line: Cytotoxicity against human SH-SY5Y cells assessed as reduction of cell viability at 20 uM after 24 hrs. Type of assay: functional, cell-based.
Assay [2] deals with MCF7. The experiment in a line: Cytotoxicity against human MCF7 cells assessed as reduction of cell viability at 20 uM after 24 hrs. Type of assay: functional, cell-based.
For assay [3], the system named is MCF7. The experiment in a line: Cytotoxicity against human MCF7 cells assessed as reduction of cell viability at 10 uM after 24 hrs. Type of assay: functional, cell-based.
The test system of assay [4] is MCF7. The experiment in a line: Cytotoxicity against human MCF7 cells assessed as reduction of cell viability at 30 uM after 48 hrs. Type of assay: functional.
In assay [5] the test system is SH-SY5Y. The experiment in a line: Cytotoxicity against human SH-SY5Y cells assessed as reduction of cell viability at 10 uM after 24 hrs. In kind it is functional, cell-based.
In assay [6] the test system is MCF7. The experiment in a line: Induction of morphological changes in human MCF7 cells assessed as increase in volume of nucleus at 30 uM after 6 hrs. In kind it is functional, cell-based.
The test system of assay [7] is SH-SY5Y. The experiment in a line: Induction of morphological changes in human SH-SY5Y cells assessed as increase in refringency of the nucleoli at 30 uM after 6 hrs. Type of assay: functional, cell-based.
Assay [8] relates to SH-SY5Y. The experiment in a line: Induction of morphological changes in human SH-SY5Y cells assessed as cytoplasm vacuolization at 30 uM after 6 hrs. Type of assay: functional, cell-based.
Assay [9] concerns MCF7. The experiment in a line: Induction of morphological changes in human MCF7 cells at 30 uM after 24 hrs. Type of assay: functional, cell-based.
The subject of assay [10] is MCF7. The experiment in a line: Induction of morphological changes in human MCF7 cells assessed as increase in refringency of the nucleoli at 30 uM after 6 hrs. Type of assay: functional, cell-based.
Assay [11] concerns SH-SY5Y. The experiment in a line: Induction of morphological changes in human SH-SY5Y cells assessed as increase in volume of nucleus at 30 uM after 6 hrs. Type of assay: functional, cell-based.
Assay [12] relates to SH-SY5Y. The experiment in a line: Induction of morphological changes in human SH-SY5Y cells assessed as cell swelling at 30 uM after 6 hrs. In kind it is functional, cell-based.
In assay [13] the test system is MCF7. The experiment in a line: Induction of morphological changes in human MCF7 cells assessed as cell swelling at 30 uM after 6 hrs. In kind it is functional, cell-based.
The test system of assay [14] is MCF7. The experiment in a line: Induction of morphological changes in human MCF7 cells assessed as cytoplasm vacuolization at 30 uM after 6 hrs. In kind it is functional, cell-based.
The test system of assay [15] is SH-SY5Y. The experiment in a line: Cytotoxicity against human SH-SY5Y cells assessed as reduction of cell viability at 30 uM after 48 hrs. Type of assay: functional.
Assay [16] has as its system MCF7. The experiment in a line: Induction of morphological changes in human MCF7 cells assessed as change in cell shape at 30 uM after 48 hrs. In kind it is functional, cell-based.
Assay [17] has as its system MCF7. The experiment in a line: Induction of morphological changes in human MCF7 cells assessed as change in perimeter of cell at 30 uM after 48 hrs. In kind it is functional, cell-based.
Assay [18] concerns MCF7. The experiment in a line: Induction of morphological changes in human MCF7 cells assessed as change in volume of cell at 30 uM after 48 hrs. Type of assay: functional, cell-based.
The test system of assay [19] is SH-SY5Y. The experiment in a line: Induction of morphological changes in human SH-SY5Y cells assessed as change in cell shape at 30 uM after 48 hrs. Type of assay: functional, cell-based.
Assay [20] deals with SH-SY5Y. The experiment in a line: Induction of morphological changes in human SH-SY5Y cells assessed as change in volume of cell at 30 uM after 48 hrs. In kind it is functional, cell-based.
For assay [21], the system named is SH-SY5Y. The experiment in a line: Induction of morphological changes in human SH-SY5Y cells assessed as change in perimeter of cell at 30 uM after 48 hrs. Type of assay: functional, cell-based.

The source made the active and inactive calls. The calls are words filed in the database; no cut-off is given here.

In the case of `O=C1C(c2ccccc2)=C(c2ccc(Br)cc2)C[C@H]2C[C@@H](O)CN12`, the result with SH-SY5Y [1], with MCF7 [2], in the assay with MCF7 [3], with MCF7 [4] and in the assay on SH-SY5Y [5] was Active.
As to `O=C(C[C@H]1C[C@@H](O)CN1C(=O)Cc1ccccc1)c1ccc(-c2ccccc2)cc1`, the result with MCF7 [6], in the assay with SH-SY5Y [7], in the assay on SH-SY5Y [8], with MCF7 [9], with MCF7 [10] and in the assay with SH-SY5Y [11] was Active. Also, the result in the assay on MCF7 [3], in the assay with SH-SY5Y [12], in the assay with MCF7 [13], with MCF7 [14] and in the assay with SH-SY5Y [5] was Active.
For the compound `O=C1C(c2ccccc2)=C(c2ccccc2)C[C@@H]2C[C@@H](O)CN12`, the outcome in the assay with SH-SY5Y [1], in the assay with SH-SY5Y [15], in the assay with MCF7 [2], in the assay on MCF7 [3], with MCF7 [4] and with SH-SY5Y [5] was Active.
`COc1ccc(C2=C(c3ccccc3)C(=O)N3C[C@H](O)C[C@@H]3C2)cc1`: the result with SH-SY5Y [1], in the assay with MCF7 [2], with MCF7 [3], in the assay with MCF7 [4] and in the assay with SH-SY5Y [5] was Active.
As to `Cn1cccc1C1=C(c2ccccc2)C(=O)N2C[C@H](O)C[C@H]2C1`, the result with SH-SY5Y [1], in the assay on SH-SY5Y [15], in the assay with MCF7 [2], in the assay on MCF7 [3], with MCF7 [4] and in the assay on SH-SY5Y [5] was Active.
Turning to `O=C(C[C@@H]1C[C@@H](O)CN1C(=O)Cc1ccccc1)c1ccc(-c2ccccc2)cc1`, the outcome in the assay on MCF7 [3] and with SH-SY5Y [5] was Active.
As to `COc1ccc(C2=C(c3ccccc3)C(=O)N3C[C@H](O)C[C@H]3C2)cc1`, the result in the assay with SH-SY5Y [1], in the assay on SH-SY5Y [15], with MCF7 [2], in the assay on MCF7 [3], in the assay with MCF7 [4] and with SH-SY5Y [5] was Active.
Turning to `O=C1C(c2ccccc2)=C(c2ccc(Br)cc2)C[C@@H]2C[C@@H](O)CN12`, the outcome in the assay with SH-SY5Y [1], with SH-SY5Y [15], in the assay with MCF7 [2], in the assay on MCF7 [3], in the assay with MCF7 [4] and in the assay on SH-SY5Y [5] was Active.
In the case of `O=C1C(c2ccccc2)=C(c2ccc(-c3ccccc3)cc2)C[C@@H]2C[C@@H](O)CN12`, the outcome in the assay on SH-SY5Y [1], in the assay with MCF7 [2], in the assay with MCF7 [3] and in the assay with SH-SY5Y [5] was Active. The Activity with SH-SY5Y [15] and in the assay with MCF7 [4] was greater than 70% throughout.
`O=C1C(c2ccccc2)=C(c2ccccc2)C[C@H]2C[C@@H](O)CN12`: the outcome with SH-SY5Y [1], in the assay with SH-SY5Y [15], with MCF7 [2], in the assay on MCF7 [3], in the assay on MCF7 [4] and with SH-SY5Y [5] was Active.
Take `Cn1cccc1C1=C(c2ccccc2)C(=O)N2C[C@H](O)C[C@@H]2C1`: the outcome with SH-SY5Y [1], with SH-SY5Y [15], with MCF7 [2], with MCF7 [3], in the assay on MCF7 [4] and in the assay on SH-SY5Y [5] was Active.
In the case of `O=C1C(c2ccccc2)=C(c2ccc(-c3ccccc3)cc2)C[C@H]2C[C@@H](O)CN12`, the outcome in the assay with MCF7 [16], in the assay on SH-SY5Y [1], with MCF7 [2], in the assay on MCF7 [3], in the assay with MCF7 [17] and in the assay on MCF7 [18] was Active. Further, the result in the assay with SH-SY5Y [19], in the assay on SH-SY5Y [20], in the assay with SH-SY5Y [5] and in the assay with SH-SY5Y [21] was Active. In addition, the Activity in the assay with SH-SY5Y [15] and in the assay on MCF7 [4] was greater than 70% in each case.
